Read-outs that look alike come from different tables or passages of the source.

One series deals with UTI89 E. coli. The series is described as follows: Broth microdilution growth inhibition (OD600). Format: cell-based, Escherichia coli. The following applies: UTI89 E. coli. The text has this:
(§1) Bacterial culture reagents including LB broth (Lennox), agar-agar, ampicillin, and ceftriaxone were purchased from Sigma Aldrich Corp. The Escherichia coli (E. coli) K12 strain HB101 and pGLO E. coli transformation kit purchased from Bio-Rad Laboratories Inc. HB101 was transformed with the bla gene via the pGLO plasmid. The bla gene encodes for a TEM-1 β-lactamase that imparts penicillin resistance to the mutant E. coli K-12 strain (+Bla). Strains E. coli UTI89, [27] pCOM-GFP-transformed E. coli UTI89 (pCOM-GFP), [28] and Methicillin-Resistant Staphylococcus aureus (MRSA) clone USA300 [29] have been previously described. The Extended-Spectrum β-Lactamase (ESBL) E. coli, Klebsiella pneumonia (Klebs), and Pseudomonas aeruginosa (Pseudo) strains were clinical isolates acquired deidentified from Duke Hospital and tested for antibiotic susceptibility in the Clinical Microbiology Laboratory using standard clinical susceptibility methods.
(§2) Cultures were incubated on LB (Lennox, Sigma) agar at 37° C. in ambient atmospheric composition. Before beginning an experiment, a single bacterial colony grown on LB agar was resuspended in 2 mL LB broth and incubated overnight to form a turbid cell suspension. The overnight culture was diluted 1:100 in LB and used immediately as the working culture. To assess the antibacterial activity of compounds, the working bacterial culture was aliquoted in a clear, flat-bottomed, 96-well polystyrene plate (Costar) and the compound of interest was added in 2-fold serial dilution from 500 to 1 μM. Plates were covered with a breathable sealing film (Aeroseal, Genesee Scientific) and incubated at 37° C. in ambient atmospheric composition with shaking at 200 rpm. Optical density at 600 nm was recorded after 4 h and 20 h for each well using a standard OD600 protocol with LB serving as the blank. The resulting dose-response curves were fit to a nonlinear regression in GraphPad Prism Version 6 to calculate the IC50 of DB4-51 in each strain.
(§3) The ability of DB4-162 to inhibit bacterial growth was assessed by a traditional broth microdilution method that assesses the turbidity of liquid cultures in the presence of varying concentrations of the compound. As described above for DB4-51, the antibacterial properties of the prochelator DB4-162 were assessed in non-pathogenic lab-strain HB101K-12 E. coli and compared to the pGLO-transfected mutant HB101K-12 E. coli that express β-lactamase. Clinically relevant pathogenic bacteria were also screened, including UTI89 E. coli, pCOM transfected UTI89 E. coli (pCOM), extended spectrum β-lactamase (ESBL) E. coli, methicillin-resistant Staphylococcus aureus (MRSA), and Klebsiella pneumonia (Klebs). In addition to being naturally resistant to many β-lactam antibiotics, MRSA can produce a number of β-lactamases. […] It should be noted that all of the bacteria tested are gram-negative except for gram-positive MRSA.
(§4) The goal of this screen was to calculate the IC50 of the prochelator in a series of pathogenic bacteria and compare these values to the IC50 of known antibiotics in those same strains to determine the relative effectiveness of DB4-162 against the drug-resistant and drug-susceptible bacteria in comparison to current antibiotic treatment options. Bacterial growth was monitored in LB broth at 37° C. in the presence and absence of DB4-162 for 20 hours. A concentration gradient of DB4-162 from 500 to 0 μM was used to screen all 7 strains of bacteria and the dose-response curves were fit to a […] to calculate the IC50 of DB4-162 in each strain. These IC50 values are an approximation of how effectively DB4-162 inhibits the growth of each bacterial strain in vitro.
(§5) IC50 values for ampicillin were calculated via broth microdilution in LB broth only. Values are listed as the mean followed by the 95% confidence interval about the mean. Mean and confidence intervals were calculated from a variable slope, nonlinear regression fit to the dose-response OD600 data. […]
For orientation: Dilution methods test growth across graded concentrations, often in twofold steps.

Series [1] relates to resistant E. coli HB101 K-12 transformed to express β-lactamase. The series is described as follows: microbe, parasite or virus in culture. Particulars: for IC50: Escherichia coli. It counts as cell-based, Escherichia coli. As to the method:
In order to determine the antibiotic activity of DB4-51, a debilitated strain of Escherichia coli (HB101 K-12) was transformed with the pGLO plasmid from Bio-Rad in order to express β-lactamase. This transformation was confirmed by growing on a selective medium containing 100 μg/ml ampicillin in Lennox LB with 1.5% agar. A broth microdilution assay was employed to determine the relative activity of DB4-51 against susceptible (HB 101 K-12, no β-lactamase) and resistant (HB 101 K-12 transformed to express β-lactamase) E. coli. […] The bacterial growth was monitored by recording each well's absorbance at 600 nm (OD600.) The OD600 values of E. coli suspensions incubated with various compounds were compared in order to assess their activities.
FIG. 7: OD600 of susceptible and resistant K-12 E. coli cultures against DB4-51 and known antibiotics as a function of concentration. Ampicillin has a penicillin core and cephalexin has a cephalosporin core. Cultures were grown in LB broth at 37° C. while shaking at 200 rpm for 18 hours and then diluted to an OD600 of 0.005 before adding the compounds. […]
Table 1: Calculated IC50 values for DB4-51, cephalexin, ampicillin, and pyrithione. These values were derived by fitting the data to a log dose-response curve and reporting the concentration corresponding to half the maximum OD600 value for each compound.

For series [2], the system named is Methicillin-Resistant Staphylococcus aureus (MRSA). In words: microbe, parasite or virus in culture. Format: cell-based.
Source text: as §1, §2, §3, §4, §5

For series [3], the system named is CCD-19Lu human lung fibroblast cells.
Method: (§6) CellTox Green LDH Cytotoxicity Detection Kit was purchased from Promega. Cell lines were purchased from the ATCC. All work was performed in a laminar-flow hood using sterile techniques. […] After splitting and counting, black, clear bottom 96-well plates were seeded at a density of 15,000 cells/well and incubated overnight at 37° C. in a fully humidified atmosphere containing 5% CO2. […] Untreated cells served as the negative control while wells containing untreated cells incubated with 1% Triton X-100 served as the positive control.
(§7) Using a cytotoxicity assay, the viability of mammalian cells was monitored as a function of their membrane integrity.
Series [4] relates to HepG2 human liver epithelial cells.
Method: as §6, §7
Setting [5] is: Escherichia coli, LB + 10 μM CuCl2.
Setting [6] is: Escherichia coli, LB + 500 μM BCS.
Setting [7] is: Staphylococcus aureus, LB + 500 μM BCS.
The mark [8] stands for this setting: concentrations below 500 μM, 24 hour.

Regarding `CC1(C)S[C@@H]2[C@H](NC(=O)[C@H](N)c3ccccc3)C(=O)N2[C@H]1C(=O)O` [Ampicillin], the IC50 (as a rule, the midpoint of a concentration-inhibition curve) with UTI89 E. coli (LB broth) was 3 nM; in the series with UTI89 E. coli (LB broth, listed as ampicillin), 3000 nM; in series [1], more than 560000 nM; in series [2] (LB broth), more than 250000 nM.
As to `O=C(Cc1ccccc1)N[C@@H]1C(=O)N2C(C(=O)O)=C(CSc3cccc[n+]3[O-])CS[C@H]12` [DB4-51, 2-((((6R,7R)-2-carboxy-8-oxo-7-(2-phenylacetamido)-5-thia-1-azabicyclo[4.2.0]oct-2-en-3-yl)methyl)thio)pyridine 1-oxide], the LD50 in series [3] (24 h) and in series [4] (24 h) was more than 500 µM throughout. Also, the cytotoxicity entry in series [3] (below 250 μM, 24 h) was “non-toxic”; in series [4] (below 250 μM, 24 h), “non-toxic”. Moreover, the IC50 stood at 21 nM in the series with UTI89 E. coli (setting [5]), 17 nM with UTI89 E. coli (setting [6]) and 39000 nM in series [1]. In series [1] (resistant K-12, over 22 hours), the “decrease of IC50 over time” value is 50%. Moreover, the “change in IC50 value as a function of Cu availability” value in series [2] (Cu-replete vs Cu-limited) was determined as 55 fold. In series [4] (at 500 μM, 24 h), the cell death result is given as “more than 50%”.
For `Cc1csc(=S)n1OCC1=C(C(=O)O)N2C(=O)[C@@H](NC(=O)Cc3ccccc3)[C@H]2SC1` [DB4-162, (6R,7R)-3-(((4-methyl-2-thioxothiazol-3(2H)-yl)oxy)methyl)-8-oxo-7-(2-phenylacetamido)-5-thia-1-azabicyclo[4.2.0]oct-2-ene-2-carboxylic acid], the IC50 is 97000 nM with UTI89 E. coli (setting [5]); 77000 nM in the series on UTI89 E. coli (setting [6]); 93000 nM in the series on UTI89 E. coli (Escherichia coli, LB broth); 2700 nM in series [2] (Staphylococcus aureus, LB + 10 μM CuCl2); 2400 nM in series [2] (setting [7]); 2400 nM in series [2] (Staphylococcus aureus, LB broth).
In the case of `[O-][n+]1ccccc1S` [PT, 2-mercaptopyridine N-oxide], the cell death in series [3] (setting [8]) and in series [4] (setting [8]) was not above 50% in each case. For the same compound, the IC50 was 4 nM in the series with UTI89 E. coli (setting [5]); 6 nM in the series on UTI89 E. coli (setting [6]); 2 nM in the series on UTI89 E. coli (Escherichia coli, LB broth); less than 18000 nM in series [1]; 11 nM in series [2] (setting [7]).

Values taken from patent publication US10533018B2, “Antimicrobial prochelators to target drug-resistant bacteria and methods of making and using the same” (Duke University, priority 2015, dated 2020).
